One experiment deals with silkworms. As to conditions: known from literature (Kanaoka et al. 1979; JP 05 271 013); cited from earlier work.
The test system of experiment [1] is caterpillars of the army worm (Spodoptera frugiperda). Put plainly: Spodoptera frugiperda test. As to conditions: active compound concentration 1000 ppm; dipped cabbage leaves (Brassica oleracea). In kind it is in vivo. How it is done: Spodoptera frugiperda test
Solvent: 31 parts by weight of acetone
(§1) Emulsifier: 1 part by weight of alkylaryl polyglycol ether
(§2) To produce a suitable preparation of active compound, 1 part by weight of active compound is mixed with the stated amounts of solvent and emulsifier, and the concentrate is diluted with emulsifier-containing water to the desired concentration.
Cabbage leaves (Brassica oleracea) are treated by being dipped into the preparation of active compound of the desired concentration and populated with caterpillars of the army worm (Spodoptera frugiperda) while the leaves are still moist.
After the desired period of time, the kill in % is determined. 100% means that all caterpillars have been killed; 0% means that none of the caterpillars have been killed.

Experiment [2] deals with larvae of the mustard beetle (Phaedon cochleariae). Put plainly: Phaedon larvae test. Type of experiment: in vivo. Particulars: active compound concentration 1000 ppm; dipped cabbage leaves (Brassica oleracea). As for the experimental part:
(§3) Solvent: 3 parts by weight of dimethylformamide
as §1, §2
Cabbage leaves (Brassica oleracea) are treated by being dipped into the preparation of active compound of the desired concentration and populated with larvae of the mustard beetle (Phaedon cochleariae) while the leaves are still moist.
After the desired period of time, the kill in % is determined. 100% means that all beetle larvae have been killed; 0% means that none of the beetle larvae have been killed.

The subject of the next experiment is Meloidogyne incognita. The experiment in a line: Meloidogyne test. Type of experiment: in vivo. Particulars: active compound concentration 20 ppm; sand, lettuce seeds. As for the experimental part: as §3, §1
To produce a suitable preparation of active compound, 1 part by weight of active compound is mixed with the stated amounts of solvent and emulsifier, and the concentrate is diluted with water to the desired concentration.
Vessels are filled with sand, a solution of the active compound, Meloidogyne incognita-egg larvae suspension and lettuce seeds. The lettuice seeds germinate, and the small plants develop. On the roots, galls are formed.
After the desired period of time, the nematicidal action is determined in % by the formation of galls. 100% means that no galls have been found; 0% means that the number of galls on the treated plants corresponds to that of the untreated control.

For experiment [3], the system named is caterpillars of the diamond back moth (Plutella xylostella). The experiment in a line: Plutella test/symptomatology study. Type of experiment: in vivo. As to conditions: 10 μg/larva; 1 μl acetone solution administered to caterpillars. As for the experimental part:
Plutella test/symptomatology study
To prepare an advantgeous preparation of active compound, 10 mg of active compound are mixed with 1 ml of solvent.
1 μl of the solution prepared in this manner is administered to caterpillars of the diamond back moth (Plutella xylostella).
After the desired period of time, the kill in % is determined 100% means that all caterpillars have been killed; 0% means that none of the caterpillars have been killed.

SMILES strings stand for the structures.

For the molecule `CC(C)C[C@H]1C(=O)O[C@H](Cc2ccccc2)C(=O)N(C)[C@@H](CC(C)C)C(=O)O[C@H](C)C(=O)N(C)[C@@H](CC(C)C)C(=O)O[C@H](Cc2ccccc2)C(=O)N(C)[C@@H](CC(C)C)C(=O)O[C@H](C)C(=O)N1C` [PF1022A], the “insecticidal activity against silkworms” value with silkworms is recorded as “insecticidal activity”.

For the molecule `CC(C)C[C@H]1C(=O)O[C@H](C(C)C)C(=O)N(C)[C@@H](CC(C)C)C(=O)O[C@H](C(C)C)C(=O)N(C)[C@@H](CC(C)C)C(=O)O[C@H](C(C)C)C(=O)N(C)[C@@H](CC(C)C)C(=O)O[C@H](C(C)C)C(=O)N1C` [bassianolide], in the experiment with silkworms, the “insecticidal activity against silkworms” value is “insecticidal activity”.

As to `CC(C)C[C@H]1C(=O)O[C@H](Cc2ccc(N3CCOCC3)cc2)C(=O)N(C)[C@@H](CC(C)C)C(=O)O[C@H](C)C(=O)N(C)[C@@H](CC(C)C)C(=O)O[C@H](Cc2ccc(N3CCOCC3)cc2)C(=O)N(C)[C@@H](CC(C)C)C(=O)O[C@H](C)C(=O)N1C` [compound of the formula (I)], the kill rate in experiment [1], in experiment [2] and in experiment [3] was 100% each time. Also, the “nematicidal action (effect) by the formation of galls” value in the experiment with Meloidogyne incognita was found to be 98%.

The record behind these values is US20030133962A1, “Pest control agent/pf 1022-221” (priority 1999, published 2003).
